PMC6151525, “Investigation of the N-Terminus Amino Function of Arg10-Teixobactin” (Molecules : A Journal of Synthetic Chemistry and Natural …, 2017)
Like-named read-outs stand apart in the source and are kept apart here.

Experiments:
[1] = system: Staphylococcus aureus ATCC 29213; format: cell-based; details: ATCC 29213, 24 h
Experimental: (§1) After the purification and characterization of the new analogs by MALDI-TOF, their antimicrobial activity was tested against two gram-positive bacteria strains, Staphylococcus aureus and Bacillo subtilis, as well as two gram-negative strains, namely Escherichia coli and Pseudomonas aeruginosa (Table 1). […] They were then diluted to reach 512 μg/mL, the highest concentration tested, followed by two-fold serial dilution. […] The MIC was determined using the broth micro dilution method, as described by the Clinical and Laboratory Standards Institute (CLSI) guidelines, using two gram-positive and two gram-negative bacteria strains (Staphylococcus aureus ATCC 29213, Bacillus subtilis ATCC 6051, Escherichia coli ATCC 25922, Pseudomonas aeruginosa ATCC 27853). First, the bacterial strains were sub-cultured onto Mueller Hinton agar and incubated at 37 °C for 24 h before use in the experiments. Stock solutions at 6 mg/mL in 10% DMSO were prepared for analogs 1–4 and 60% DMSO for analogs 5, 6, and 8. Second, two-fold serial dilutions of each drug/compound were made in cation-adjusted Mueller Hinton broth (CAMHB) in a 96-well microtiter plate. The bacterial inoculum was prepared in distilled water, matched to a 0.5 McFarland standard, and added to make a final volume of 200 µL in each microliter well. The plates were incubated for 24 h at 37 °C under aerobic conditions. The MIC was then recorded as the lowest concentration at which no visible growth occurred. Standard drug, media, and bacterial growth control wells were included in each plate. […] The assay was performed in triplicate to confirm the results.

[2] = system: Bacillus subtilis ATCC 6051; format: cell-based; details: ATCC 6051, 24 h
Experimental: as §1

[3] = system: Escherichia coli ATCC 25922; details: Gram−; natural teixobactin, reference line of Table 1; cited from earlier work
Text: Table 1 Minimum Inhibitory Concentration (MIC) (µg/mL) for teixobactin analogs (1–6, 8–10). | column: Gram− / E. coli ATCC 25922

[4] = system: Staphylococcus aureus ATCC 29213; details: Gram+; natural teixobactin, reference line of Table 1; cited from earlier work
Text: Table 1 Minimum Inhibitory Concentration (MIC) (µg/mL) for teixobactin analogs (1–6, 8–10). | column: Gram+ / S. aureus ATCC 29213

[5] = system: Pseudomonas aeruginosa ATCC 27853; details: Gram−; natural teixobactin, reference line of Table 1; cited from earlier work
Text: Table 1 Minimum Inhibitory Concentration (MIC) (µg/mL) for teixobactin analogs (1–6, 8–10). | column: Gram− / P. aerug ATCC 27853

[6] = system: Bacillus subtilis ATCC 6051; details: Gram+; natural teixobactin, reference line of Table 1; cited from earlier work
Text: Table 1 Minimum Inhibitory Concentration (MIC) (µg/mL) for teixobactin analogs (1–6, 8–10). | column: Gram+ / B. subtilis ATCC 6051

[7] = system: Escherichia coli ATCC 25922; format: cell-based; details: ATCC 25922, 24 h
Experimental: as §1

[8] = format: physicochemical
Experimental: The most hydrophobic analogs, 5, 6, and 8, presented several difficulties regarding purification. […] Nevertheless, by washing the solid obtained several times with 30% acetonitrile in water, impurities from the cyclization were removed, as were the protecting groups, and the decanoyl derivative was obtained in good purity (Figure S11). The mixture of compounds 5 and 6 was also a challenge with respect to solubilization. In this case, the addition first of 100 μL of TFA and then 7 mL of acetonitrile, followed by sonication for 15 min, yielded a clear solution. Then, 3 mL of water was added slowly and no precipitation of the compounds was observed. This solution was injected into the semi-preparative HPLC, and the two analogs were separated efficiently.
After the purification and characterization of the new analogs by MALDI-TOF, their antimicrobial activity was tested against two gram-positive bacteria strains, Staphylococcus aureus and Bacillo subtilis, as well as two gram-negative strains, namely Escherichia coli and Pseudomonas aeruginosa (Table 1). […] They were then diluted to reach 512 μg/mL, the highest concentration tested, followed by two-fold serial dilution.

[9] = system: Pseudomonas aeruginosa ATCC 27853; experiment: MIC, broth microdilution (CLSI); format: cell-based; details: Gram−, CAMHB, 24 h at 37 °C, two-fold dilutions from 512 µg/mL, triplicate
Experimental: After the purification and characterization of the new analogs by MALDI-TOF, their antimicrobial activity was tested against two gram-positive bacteria strains, Staphylococcus aureus and Bacillo subtilis, as well as two gram-negative strains, namely Escherichia coli and Pseudomonas aeruginosa (Table 1). […] They were then diluted to reach 512 μg/mL, the highest concentration tested, followed by two-fold serial dilution. […] The MIC was determined using the broth micro dilution method, as described by the Clinical and Laboratory Standards Institute (CLSI) guidelines, using two gram-positive and two gram-negative bacteria strains (Staphylococcus aureus ATCC 29213, Bacillus subtilis ATCC 6051, Escherichia coli ATCC 25922, Pseudomonas aeruginosa ATCC 27853). First, the bacterial strains were sub-cultured onto Mueller Hinton agar and incubated at 37 °C for 24 h before use in the experiments. Stock solutions at 6 mg/mL in 10% DMSO were prepared for analogs 1–4 and 60% DMSO for analogs 5, 6, and 8. Second, two-fold serial dilutions of each drug/compound were made in cation-adjusted Mueller Hinton broth (CAMHB) in a 96-well microtiter plate. The bacterial inoculum was prepared in distilled water, matched to a 0.5 McFarland standard, and added to make a final volume of 200 µL in each microliter well. […] The MIC was then recorded as the lowest concentration at which no visible growth occurred. […]

Row | Molecule | Minimum Inhibitory Concentration (MIC) S. aureus ATCC 29213 [1] | Minimum Inhibitory Concentration (MIC) B. subtilis ATCC 6051 [2] | Minimum Inhibitory Concentration (MIC) E. coli ATCC 25922 [7] | solubility in water [8] | other results
1 | CC[C@H](C)[C@H](NC(=O)[C@@H](Cc1ccccc1)N=C(N(C)C)N(C)C)C(=O)N[C@@H](CO)C(=O)N[C@H](CCC(N)=O)C(=O)N[C@@H](C(=O)N[C@H](C(=O)N[C@@H](CO)C(=O)N[C@H]1C(=O)N[C@@H](C)C(=O)N[C@@H](CCCNC(=N)N)C(=O)N[C@@H]([C@@H](C)CC)C(=O)O[C@H]1C)[C@@H](C)CC)[C@@H](C)CC [compound 10, N-Tmg-D-Phe-Arg10-teixobactin] | 256 µg/mL | 64 µg/mL | – | – | –
2 | Teixobactin | – | – | – | – | Minimum Inhibitory Concentration (MIC) E. coli ATCC 25922 [3]: 25 µg/mL; Minimum Inhibitory Concentration (MIC) S. aureus ATCC 29213 [4]: 0.25 µg/mL; Minimum Inhibitory Concentration (MIC) P. aerug ATCC 27853 [5]: >32 µg/mL; Minimum Inhibitory Concentration (MIC) B. subtilis ATCC 6051 [6]: 0.06 µg/mL
3 | CC[C@H](C)[C@H](NC(=O)[C@@H](Cc1ccccc1)N(C)C)C(=O)N[C@@H](CO)C(=O)N[C@H](CCC(N)=O)C(=O)N[C@@H](C(=O)N[C@H](C(=O)N[C@@H](CO)C(=O)N[C@H]1C(=O)N[C@@H](C)C(=O)N[C@@H](CCCNC(=N)N)C(=O)N[C@@H]([C@@H](C)CC)C(=O)O[C@H]1C)[C@@H](C)CC)[C@@H](C)CC [compound 3, N-Me2-D-Phe-Arg10-teixobactin] | 16 µg/mL | 2 µg/mL | 128 µg/mL | – | –
4 | CCCCCCCCCCN[C@H](Cc1ccccc1)C(=O)N[C@H](C(=O)N[C@@H](CO)C(=O)N[C@H](CCC(N)=O)C(=O)N[C@@H](C(=O)N[C@H](C(=O)N[C@@H](CO)C(=O)N[C@H]1C(=O)N[C@@H](C)C(=O)N[C@@H](CCCNC(=N)N)C(=O)N[C@@H]([C@@H](C)CC)C(=O)O[C@H]1C)[C@@H](C)CC)[C@@H](C)CC)[C@@H](C)CC [compound 5, N-De-D-Phe-Arg10-teixobactin] | – | 128 µg/mL | – | poor solubility in water | –
5 | CC[C@H](C)[C@H](NC(=O)[C@@H](Cc1ccccc1)NC)C(=O)N[C@@H](CO)C(=O)N[C@H](CCC(N)=O)C(=O)N[C@@H](C(=O)N[C@H](C(=O)N[C@@H](CO)C(=O)N[C@H]1C(=O)N[C@@H](C)C(=O)N[C@@H](CCCNC(=N)N)C(=O)N[C@@H]([C@@H](C)CC)C(=O)O[C@H]1C)[C@@H](C)CC)[C@@H](C)CC [compound 1, N-Me-D-Phe-Arg10-teixobactin] | 2 µg/mL | 0.5 µg/mL | 64 µg/mL | – | Minimum Inhibitory Concentration (MIC) P. aerug ATCC 27853 [9]: NI ^1
6 | CC[C@H](C)[C@H](NC(=O)[C@H](N)Cc1ccccc1)C(=O)N[C@@H](CO)C(=O)N[C@H](CCC(N)=O)C(=O)N[C@@H](C(=O)N[C@H](C(=O)N[C@@H](CO)C(=O)N[C@H]1C(=O)N[C@@H](C)C(=O)N[C@@H](CCCNC(=N)N)C(=O)N[C@@H]([C@@H](C)CC)C(=O)O[C@H]1C)[C@@H](C)CC)[C@@H](C)CC [compound 2, D-Phe-Arg10-teixobactin] | 2 µg/mL | 1 µg/mL | 32 µg/mL | – | –
7 | N-Dec-D-Phe-Arg10-teixobactin [compound 8] | – | – | – | poor solubility in water | solubility in solvent systems compatible with reverse-phase chromatography [8]: not possible to dissolve
8 | CCCCCCCCCCN(CCCCCCCCCC)[C@H](Cc1ccccc1)C(=O)N[C@H](C(=O)N[C@@H](CO)C(=O)N[C@H](CCC(N)=O)C(=O)N[C@@H](C(=O)N[C@H](C(=O)N[C@@H](CO)C(=O)N[C@H]1C(=O)N[C@@H](C)C(=O)N[C@@H](CCCNC(=N)N)C(=O)N[C@@H]([C@@H](C)CC)C(=O)O[C@H]1C)[C@@H](C)CC)[C@@H](C)CC)[C@@H](C)CC [compound 6, N-De2-D-Phe-Arg10-teixobactin] | – | 128 µg/mL | – | poor solubility in water | –
